# Assay results from patent US11634447B2 (priority 2012, dated 2023).
# Tested on: bacterial strain LF82 binding to the glycoprotein BSA-(Mannose)3
# Test: Bacterial Binding Assay (BBA)
# Type: cell-based, Escherichia coli
# Conditions: read-out: Bacterial Binding Assay IC50, LF82/Luciferase strain binding to BSA-(Man)3 coated plates, luminescence
# In short: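 Inhibition of LF82/luciferase E. coli adhesion is read as luminescence after washing off unbound cells. Compound and bacteria (10^7 per well) are co-incubated 40-75 min at room temperature on wells coated with 0.5-2 μg/mL BSA-(Man)3, with BSA-only wells as background; IC50 values derived.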
row,Compound,IC50 [nM]
1,"OC[C@H]1O[C@H](c2cccc(-c3ccc(-c4cccc([C@H]5O[C@H](CO)[C@@H](O)[C@H](O)[C@@H]5O)c4)cc3)c2)[C@@H](O)[C@@H](O)[C@@H]1O [Compound 139, (2R,3S,4R,5S,6R)-2-(hydroxymethyl)-6-[3-[4-[3-[(2R,3S,4R,5S,6R)-3,4,5-trihydroxy-6-(hydroxymethyl)tetrahydropyran-2-yl]phenyl]phenyl]phenyl]tetrahydropyran-3,4,5-triol]",46
2,CC(C)OC(=O)c1c(C#C[C@H]2O[C@H](CO)[C@@H](O)[C@H](O)[C@@H]2O)ccc2c1C1(CCNCC1)c1cc(C#C[C@H]3O[C@H](CO)[C@@H](O)[C@H](O)[C@@H]3O)ccc1-2 [Compound 208],0.03
3,"OCc1cc(C#C[C@H]2O[C@H](CO)[C@@H](O)[C@H](O)[C@@H]2O)ccc1C#C[C@H]1O[C@H](CO)[C@@H](O)[C@H](O)[C@@H]1O [Compound 95, (2R,3S,4R,5S,6R)-2-(hydroxymethyl)-6-[2-[3-(hydroxymethyl)-4-[2-[(2R,3S,4R,5S,6R)-3,4,5-trihydroxy-6-(hydroxymethyl)tetrahydropyran-2-yl]ethynyl]phenyl]ethynyl]tetrahydropyran-3,4,5-triol]",38
4,Cc1cc(C2CC2c2ccc([C@H]3O[C@H](CO)[C@@H](O)[C@H](O)[C@@H]3O)cc2)ccc1[C@H]1O[C@H](CO)[C@@H](O)[C@H](O)[C@@H]1O (some centres unmarked) [Compound 156],18
5,"CCOC(=O)c1c(C#C[C@H]2O[C@H](CO)[C@@H](O)[C@H](O)[C@@H]2O)ccc2c1C1(CCNCC1)c1cc(C#C[C@H]3O[C@H](CO)[C@@H](O)[C@H](O)[C@@H]3O)ccc1-2 [Compound 209, ethyl 2,7-bis[2-[(2R,3S,4R,5S,6R)-3,4,5-trihydroxy-6-(hydroxymethyl)tetrahydropyran-2-yl]ethynyl]spiro[fluorene-9,4 piperidine]-1 carboxylate]",0.07
6,"COc1cc(C#C[C@H]2O[C@H](CO)[C@@H](O)[C@H](O)[C@@H]2O)c(OC)cc1C#C[C@H]1O[C@H](CO)[C@@H](O)[C@H](O)[C@@H]1O [Compound 96, (2R,3S,4R,5S,6R)-2-[2-[2,5-dimethoxy-4-[2-[(2R,3S,4R,5S,6R)-3,4,5-trihydroxy-6-(hydroxymethyl)tetrahydropyran-2-yl]ethynyl]phenyl]ethynyl]-6-(hydroxymethyl)tetrahydropyran-3,4,5-triol]",66
7,"CN1CCN(C2c3cc(C#C[C@H]4O[C@H](CO)[C@@H](O)[C@H](O)[C@@H]4O)ccc3-c3ccc(C#C[C@H]4O[C@H](CO)[C@@H](O)[C@H](O)[C@@H]4O)cc32)CC1 [Compound 198, (2R,3S,4R,5S,6R)-2-(hydroxymethyl)-6-[2-[9-(4-methylpiperazin-1-yl)-7-[2-[(2R,3S,4R,5S,6R)-3,4,5-trihydroxy-6-(hydroxymethyl)tetrahydropyran-2-yl]ethynyl]-9H-fluoren-2-yl]ethynyl]tetrahydropyran-3,4,5-triol]",24
8,"OC[C@H]1O[C@H](C#Cc2cc(F)c(C#C[C@H]3O[C@H](CO)[C@@H](O)[C@H](O)[C@@H]3O)cc2F)[C@@H](O)[C@@H](O)[C@@H]1O [Compound 88, (2R,3S,4R,5S,6R)-2-[2-[2,5-difluoro-4-[2-[(2R,3S,4R,5S,6R)-3,4,5-trihydroxy-6-(hydroxymethyl)tetrahydropyran-2-yl]ethynyl]phenyl]ethynyl]-6-(hydroxymethyl)tetrahydropyran-3,4,5-triol]",132
9,Cc1cc(-c2ccc([C@H]3O[C@H](CO)[C@@H](O)[C@H](O)[C@@H]3O)cc2)ccc1[C@H]1O[C@H](CO)[C@@H](O)[C@H](O)[C@@H]1O [Compound 64],15
10,"OC[C@H]1O[C@H](C#Cc2ccc3c(c2)C(O)(C2CC2)c2cc(C#C[C@H]4O[C@H](CO)[C@@H](O)[C@H](O)[C@@H]4O)ccc2-3)[C@@H](O)[C@@H](O)[C@@H]1O (stereo partly drawn) [Compound 114, (2R,3S,4R,5S,6R)-2-[2-[9-cyclopropyl-9-hydroxy-7-[2-[(2R,3S,4R,5S,6R)-3,4,5-trihydroxy-6-(hydroxymethyl)tetrahydropyran-2-yl]ethynyl]fluoren-2-yl]ethynyl]-6-(hydroxymethyl)tetrahydropyran-3,4,5-triol]",1.2
11,"OC[C@H]1O[C@H](C#Cc2cccc3cccc(C#C[C@H]4O[C@H](CO)[C@@H](O)[C@H](O)[C@@H]4O)c23)[C@@H](O)[C@@H](O)[C@@H]1O [Compound 137, (2R,3S,4R,5S,6R)-2-(hydroxymethyl)-6-[2-[8-[2-[(2R,3S,4R,5S,6R)-3,4,5-trihydroxy-6-(hydroxymethyl)tetrahydropyran-2-yl]ethynyl]-1-naphthyl]ethynyl]tetrahydropyran-3,4,5-triol]",700
12,"CN1CCC(Cn2c3cc(C#C[C@H]4O[C@H](CO)[C@@H](O)[C@H](O)[C@@H]4O)ccc3c3ccc(C#C[C@H]4O[C@H](CO)[C@@H](O)[C@H](O)[C@@H]4O)cc32)CC1 [Compound 188, (2R,3S,4R,5S,6R)-2-(hydroxymethyl)-6-[2-[9-[(1-methyl-4-piperidyl)methyl]-7-[2-[(2R,3S,4R,5S,6R)-3,4,5-trihydroxy-6-(hydroxymethyl)tetrahydropyran-2-yl]ethynyl]carbazol-2-yl]ethynyl]tetrahydropyran-3,4,5-triol]",4.3
13,"[2H]C([2H])([2H])OCCn1c2cc(C#C[C@H]3O[C@H](CO)[C@@H](O)[C@H](O)[C@@H]3O)ccc2c2ccc(C#C[C@H]3O[C@H](CO)[C@@H](O)[C@H](O)[C@@H]3O)cc21 [Compound 183, (2R,3S,4R,5S,6R)-2-(Hydroxymethyl)-6-[2-[9-[2-(trideuteriomethoxy)ethyl]-7-[2-[(2R,3S,4R,5S,6R)-3,4,5-trihydroxy-6-(hydroxymethyl)tetrahydropyran-2-yl]ethynyl]carbazol-2-yl]ethynyl]tetrahydropyran-3,4,5-triol]",0.76
14,COCCc1cc(C#C[C@H]2O[C@H](CO)[C@@H](O)[C@H](O)[C@@H]2O)ccc1C#C[C@H]1O[C@H](CO)[C@@H](O)[C@H](O)[C@@H]1O [Compound 74],8.1
15,"O=C1CC[C@H](C(=O)c2c(C#C[C@H]3O[C@H](CO)[C@@H](O)[C@H](O)[C@@H]3O)ccc3c2C2(CCNCC2)c2cc(C#C[C@H]4O[C@H](CO)[C@@H](O)[C@H](O)[C@@H]4O)ccc2-3)N1 [Compound 243, (5R)-5-[2,7-bis[2-[(2R,3S,4R,5S,6R)-3,4,5-trihydroxy-6-(hydroxymethyl)tetrahydropyran-2-yl]ethynyl]spiro[fluorene-9,4piperidine]-1carbonyl]pyrrolidin-2-one]",0.22
16,OC[C@H]1O[C@H](C#Cc2cc3sc(C#C[C@H]4O[C@H](CO)[C@@H](O)[C@H](O)[C@@H]4O)cc3s2)[C@@H](O)[C@@H](O)[C@@H]1O [Compound 133],28
17,"Cc1cc(C#Cc2ccc([C@H]3O[C@H](CO)[C@@H](O)[C@H](O)[C@@H]3O)c(C)c2)ccc1[C@H]1O[C@H](CO)[C@@H](O)[C@H](O)[C@@H]1O [Compound 152, (2R,3S,4R,5S,6R)-2-(hydroxymethyl)-6-[2-methyl-4-[2-[3-methyl-4-[(2R,3S,4R,5S,6R)-3,4,5-trihydroxy-6-(hydroxymethyl)tetrahydropyran-2-yl]phenyl]ethynyl]phenyl]tetrahydropyran-3,4,5-triol]",31
